We go through five compounds from ChEMBL document CHEMBL1138707, “Bridgehead modification of trihalocycloheptabenzopyridine leads to a potent farnesyl protein transferase inhibitor with improved oral metabolic stability” (Bioorg Med Chem Lett, 2004).

Data set [1] in a line: Area under the curve in rats by administering perorally. The class given is ADME. The settings on record: rat, in vivo, po.
The nature of data set [2]: Inhibition of soft agar colony formation in H-Ras transformed cells. It counts as functional, cell-based.
Data set [3] can be described thus: Oral bioavailability in rat. It counts as ADME, organism-based. As to conditions: in vivo.
A short description of data set [4]: Inhibition of COS cell proliferation. It counts as functional, cell-based.
Data set [5] can be described thus: Inhibition of H-Ras transformed NIH3T3 cell proliferation. It counts as functional, cell-based.
Data set [6] addresses T1, Protein farnesyltransferase (Homo sapiens, UniProt P49354+P49356). Nature of the data set: Percent inhibition of [3H]FPP incorporation into H-ras CVLS by Farnesyltransferase at 17. The settings on record: concentration not given here. The class given is protein-complex assay.
For data set [7], the target named is T1, Protein farnesyltransferase. Nature of the data set: Inhibition of [3H]FPP incorporation into H-ras CVLS by Farnesyltransferase. The class given is protein-complex assay.

Structures are written as SMILES.

The term IC50 denotes the concentration that inhibits the measured activity by half. A low value points to inhibition by little substance. Compound `CS(=O)(=O)N1CCC([C@@H]2c3ncc(Br)cc3C=Cc3cc(Cl)cc(Br)c32)CC1` had an AUC in data set [1] of 45.4 µg/h/mL. In data set [2], this compound displayed an IC50 greater than 500 nM.
Take `NC(=O)N1CCC(CC(=O)N2CCC([C@@H]3c4ncc(Br)cc4C=Cc4cc(Cl)cc(Br)c43)CC2)CC1`: the AUC in data set [1] came to 7 µg/h/mL.
For orientation: bioavailability means the share of a dose that reaches the circulation, judged against a reference dose that is usually intravenous. A high value points to much systemic uptake. The compound `NC(=O)N1CCC(CC(=O)N2CCC([C@H]3c4ncc(Br)cc4CCc4cc(Cl)cc(Br)c43)CC2)CC1` [LONAFARNIB] showed a bioavailability in data set [3] of 76%. For the same compound, the values for the 50% inhibitory concentration (IC50) in data set [4], in data set [2] and in data set [5] were 10 nM, 70 nM and 72 µM, respectively. For the same compound, the AUC in data set [1] was 24.1 µg/h/mL.
Usually inhibition stands for the share of the control response that was lost under treatment. Read a high inhibition as strong suppression. `O=C(Cc1cc[n+]([O-])cc1)N1CCC([C@H]2c3ncc(Br)cc3C=Cc3cc(Cl)cc(Br)c32)CC1`: the inhibition in data set [6] stood at 44%.
Turning to `O=C(Cc1cc[n+]([O-])cc1)N1CCC([C@@H]2c3ncc(Br)cc3C=Cc3cc(Cl)cc(Br)c32)CC1`, the concentration for half-maximal inhibition (IC50) in data set [7] turned out to be 0.32 nM; in data set [2], 30 nM. The AUC in data set [1] amounted to 15.5 µg/h/mL.
